Test results from the Kinase Knowledgebase extract (Sharma et al. 2016).

Assays:
[1] = target: MAPK14 (human) (UniProt Q16539); experiment: Inhibition of IL-1 Production in Whole Blood
[2] = target: MAPK14 (human) (UniProt Q16539); experiment: Inhibition of IL-6 Production in Whole Blood
[3] = target: MAPK14 (human) (UniProt Q16539); experiment: Inhibition of TNF Production in Whole Blood
[4] = target: MAPK14 (human) (UniProt Q16539); experiment: Inhibition of TNF-alpha Production in LPS-Stimulated PBMCs; details: pbmc
[5] = target: MAPK14 (human) (UniProt Q16539); experiment: Inhibition of IL-1 Production in LPS-Stimulated PBMCs; details: pbmc
[6] = target: MAPK14 (human) (UniProt Q16539); experiment: Inhibition of MAPK14 Kinase Activity

Sequence of MAPK14 (human) (Q16539 whole entry, looked up): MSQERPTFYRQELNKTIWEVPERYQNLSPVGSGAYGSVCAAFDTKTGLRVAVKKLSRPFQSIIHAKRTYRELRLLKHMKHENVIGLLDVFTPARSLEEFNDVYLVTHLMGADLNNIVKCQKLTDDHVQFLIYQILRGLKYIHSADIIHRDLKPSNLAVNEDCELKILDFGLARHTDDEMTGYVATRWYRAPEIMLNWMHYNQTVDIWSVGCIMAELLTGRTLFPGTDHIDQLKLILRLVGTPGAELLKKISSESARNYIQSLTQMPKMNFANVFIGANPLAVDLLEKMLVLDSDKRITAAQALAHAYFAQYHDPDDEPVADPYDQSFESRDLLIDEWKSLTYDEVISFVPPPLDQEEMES

Row | IC50 [6] | SMILES | IC50 [1] | IC50 [2] | IC50 [3] | IC50 [4] | IC50 [5]
1 | – | O=C1NCN2N=C(Sc3ccc(F)cc3Cl)C=CC2=C1c1c(Cl)cccc1Cl | 250 to 500 nM | < 250 nM | 250 to 500 nM | – | –
2 | – | NC(=O)Nc1cc(F)ccc1SC1=NN2CNC(=O)C(c3c(Cl)cccc3Cl)=C2C=C1 | – | – | – | > 500 nM | > 500 nM
3 | – | CN(C)C(=O)c1ccccc1Sc1ccc2c(-c3c(Cl)cccc3Cl)c(=O)ncn2n1 | – | – | – | > 500 nM | > 500 nM
4 | – | N=C(N)Nc1cc(F)c(F)cc1SC1=NN2CNC(=O)C(c3c(Cl)cccc3Cl)=C2C=C1 | – | – | – | > 500 nM | > 500 nM
5 | – | COc1ccc(C2=C3C=CC(Sc4ccc(F)cc4)=NN3CNC2=O)c(Cl)c1 | > 500 nM | > 500 nM | > 500 nM | > 500 nM | –
6 | – | COc1cc(Cl)c(C2=C3C=CC(Sc4ccc(F)cc4)=NN3CNC2=O)cc1OC | – | – | – | > 500 nM | –
7 | – | Nc1ccc(Cl)c(C2=C3C=CC(Sc4ccc(F)cc4)=NN3CNC2=O)c1Cl | > 500 nM | > 500 nM | > 500 nM | – | –
8 | – | N#Cc1ccccc1SC1=NN2CNC(=O)C(c3c(Cl)cccc3Cl)=C2C=C1 | > 500 nM | > 500 nM | > 500 nM | – | –
9 | – | Cc1cc(F)ccc1-c1cccc(C(C(N)=O)c2c(Cl)cccc2Cl)n1 (centres undefined) | > 500 nM | > 500 nM | > 500 nM | – | –
10 | – | CN(C)C=Nc1ccc(C2=C3C=CC(Sc4ccc(F)cc4Cl)=NN3CNC2=O)c(Cl)c1 | 250 to 500 nM | 250 to 500 nM | > 500 nM | – | –
11 | – | Cc1cc(F)ccc1-c1cccc(N(C(N)=O)c2cc3c(cc2Cl)OCO3)n1 | > 500 nM | > 500 nM | > 500 nM | – | –
12 | – | Cc1ccc(SC2=NN3CNC(=O)C(c4c(Cl)cccc4Cl)=C3C=C2)c(C)c1 | > 500 nM | > 500 nM | > 500 nM | – | –
13 | – | NC(=O)C(c1cccc(-c2ccccc2CO)n1)c1c(Cl)cccc1Cl (centres undefined) | > 500 nM | > 500 nM | > 500 nM | – | –
14 | – | Cc1ccc(Sc2ccc3c(-c4c(Cl)cccc4Cl)c(=O)ncn3n2)cc1 | – | – | – | > 500 nM | 100 to 500 nM
15 | – | O=C1NCN2N=C(Sc3ccccc3O)C=CC2=C1c1c(Cl)cccc1Cl | 250 to 500 nM | < 250 nM | 250 to 500 nM | – | –
16 | – | NC(=O)C(c1cccc(-c2ccccc2C=NO)n1)c1c(Cl)cccc1Cl (centres undefined) | > 500 nM | > 500 nM | > 500 nM | > 500 nM | –
17 | – | O=c1ncn2nc(Sc3ccccc3)ccc2c1-c1ccc(Cl)c(Cl)c1 | – | – | – | > 500 nM | > 500 nM
18 | 100 to 1000 nM | COc1ccc(-c2c(=O)ncn3nc(Sc4ccc(F)cc4)ccc23)cc1OC | – | – | – | > 500 nM | > 500 nM

Row | IC50 [6] | SMILES | IC50 [1] | IC50 [2] | IC50 [3] | IC50 [4] | IC50 [5]
19 | – | O=C1NCN2N=C(Sc3ccc(F)cc3)C=CC2=C1c1c(Cl)cccc1Cl | > 500 nM | 250 to 500 nM | – | – | –
20 | – | O=c1ncn2nc(Sc3ccc(F)cc3Cl)ccc2c1-c1c(Cl)cccc1Cl | 250 to 500 nM | 250 to 500 nM | 250 to 500 nM | – | –
21 | – | O=C(CCl)Nc1ccc(C2=C3C=CC(Sc4ccc(F)cc4)=NN3CNC2=O)c(Cl)c1 | > 500 nM | > 500 nM | > 500 nM | – | –
22 | – | NC(=O)C(c1cccc(-c2ccc(Cl)cc2Cl)n1)c1c(Cl)cccc1Cl (centres undefined) | > 500 nM | > 500 nM | > 500 nM | – | –
23 | – | Nc1ccccc1SC1=NN2CNC(=O)C(c3c(Cl)cccc3Cl)=C2C=C1 | > 500 nM | > 500 nM | > 500 nM | – | –
24 | < 100 nM | Cc1cc(F)ccc1SC1=NN2CNC(=O)C(c3c(F)cccc3F)=C2C=C1 | – | – | – | > 500 nM | 100 to 500 nM
25 | – | Cc1ccccc1-c1cccc(C(C(N)=O)c2c(Cl)cccc2Cl)n1 (centres undefined) | > 500 nM | > 500 nM | > 500 nM | > 500 nM | –
26 | – | NC(=O)C(c1ccc(C(=O)c2ccccc2)cn1)c1c(Cl)cccc1Cl (centres undefined) | – | – | – | – | > 500 nM
27 | – | NC(=O)C(c1cccc(-c2cccs2)n1)c1c(Cl)cccc1Cl (centres undefined) | – | – | – | > 500 nM | > 500 nM
28 | 100 to 1000 nM | CN(C)C=Nc1ccc(-c2c(=O)ncn3nc(Sc4cc(F)ccc4Cl)ccc23)c(Cl)c1 | – | – | – | > 500 nM | 100 to 500 nM
29 | – | O=C(CN1CCOCC1)Nc1ccc(C2=C3C=CC(Sc4ccc(F)cc4)=NN3CNC2=O)c(Cl)c1 | > 500 nM | 250 to 500 nM | > 500 nM | – | –
30 | – | Nc1ccc(C2=C3C=CC(Sc4ccc(F)cc4)=NN3CNC2=O)c(Cl)c1 | > 500 nM | 250 to 500 nM | > 500 nM | – | –
31 | – | O=c1ncn2nc(Sc3ccccc3)ccc2c1-c1c(F)cccc1C(F)(F)F | – | – | – | > 500 nM | > 500 nM
32 | – | Cc1cc(F)ccc1-c1cccc(C(C(N)=O)c2c(Cl)cc(N)cc2Cl)n1 (centres undefined) | > 500 nM | > 500 nM | > 500 nM | – | –
33 | – | COc1ccccc1-c1c(=O)ncn2nc(Sc3ccccc3)ccc12 | – | – | – | > 500 nM | > 500 nM
34 | – | COC(=O)c1ccccc1Sc1ccc2c(-c3c(Cl)cccc3Cl)c(=O)ncn2n1 | > 500 nM | – | > 500 nM | 100 to 500 nM | < 100 nM
35 | – | Cc1cc(Cl)ccc1SC1=NN2CNC(=O)C(c3c(Cl)cccc3Cl)=C2C=C1 | > 500 nM | 250 to 500 nM | 250 to 500 nM | – | –
36 | – | O=C1NCN2N=C(Sc3ccccc3Br)C=CC2=C1c1c(Cl)cccc1Cl | > 500 nM | 250 to 500 nM | > 500 nM | – | –
